Measurements published in the NIST ThermoML archive (doi:10.1016/j.jct.2016.10.033).
Numbers after ± are expanded uncertainties.

Experiment: refractive index (Na D-line) (dimensionless); xn = mol fraction of the nth substance listed
Settings: 103 kPa, Liquid, Standard Abbe refractometry

CO[Si](C)(C)OC [dimethoxydimethylsilane] + CO[Si](C)(OC)c1ccccc1
refractive index
Settings	298.15 K	303.15 K	308.15 K	313.15 K	318.15 K
x2 = 0	1.36816 ± 0.004	1.36559 ± 0.004	1.36297 ± 0.004	1.36035 ± 0.004	1.35771 ± 0.004
x2 = 0.0501	1.37551 ± 0.004	1.37295 ± 0.004	1.37035 ± 0.004	1.36774 ± 0.004	1.36513 ± 0.004
x2 = 0.1001	1.3826 ± 0.004	1.38005 ± 0.004	1.37748 ± 0.004	1.37492 ± 0.004	1.37233 ± 0.004
x2 = 0.15	1.38945 ± 0.004	1.38696 ± 0.004	1.38442 ± 0.004	1.3819 ± 0.004	1.37936 ± 0.004
x2 = 0.2	1.3961 ± 0.004	1.39364 ± 0.004	1.39111 ± 0.004	1.38864 ± 0.004	1.38612 ± 0.004
x2 = 0.25	1.40247 ± 0.004	1.40001 ± 0.004	1.39748 ± 0.004	1.39498 ± 0.004	1.39248 ± 0.004
x2 = 0.2999	1.40864 ± 0.004	1.40619 ± 0.004	1.40369 ± 0.004	1.40119 ± 0.004	1.3987 ± 0.004
x2 = 0.3499	1.41459 ± 0.004	1.41213 ± 0.004	1.40966 ± 0.004	1.40726 ± 0.004	1.4048 ± 0.004
x2 = 0.4001	1.42041 ± 0.004	1.41798 ± 0.004	1.41551 ± 0.004	1.41306 ± 0.004	1.41059 ± 0.004
x2 = 0.4501	1.42603 ± 0.004	1.42366 ± 0.004	1.42126 ± 0.004	1.41886 ± 0.004	1.41642 ± 0.004
x2 = 0.5001	1.43147 ± 0.004	1.42909 ± 0.004	1.42667 ± 0.004	1.42426 ± 0.004	1.42184 ± 0.004
x2 = 0.55	1.43672 ± 0.004	1.43435 ± 0.004	1.43195 ± 0.004	1.42958 ± 0.004	1.42718 ± 0.004
x2 = 0.6	1.44182 ± 0.004	1.43946 ± 0.004	1.43707 ± 0.004	1.43469 ± 0.004	1.43232 ± 0.004
x2 = 0.6499	1.44673 ± 0.004	1.44437 ± 0.004	1.44197 ± 0.004	1.43957 ± 0.004	1.43718 ± 0.004
x2 = 0.6999	1.45155 ± 0.004	1.4492 ± 0.004	1.44681 ± 0.004	1.44442 ± 0.004	1.44204 ± 0.004
x2 = 0.75	1.45621 ± 0.004	1.45386 ± 0.004	1.45148 ± 0.004	1.44913 ± 0.004	1.44677 ± 0.004
x2 = 0.7997	1.46072 ± 0.004	1.45837 ± 0.004	1.456 ± 0.004	1.45364 ± 0.004	1.45125 ± 0.004
x2 = 0.8499	1.46514 ± 0.004	1.46278 ± 0.004	1.46042 ± 0.004	1.45805 ± 0.004	1.45569 ± 0.004
x2 = 0.8999	1.46939 ± 0.004	1.46704 ± 0.004	1.46469 ± 0.004	1.46234 ± 0.004	1.45999 ± 0.004
x2 = 0.95	1.47356 ± 0.004	1.47121 ± 0.004	1.46886 ± 0.004	1.46651 ± 0.004	1.46417 ± 0.004

CCO[Si](C)(C)OCC [dimethyldiethoxysilane] + CO[Si](C)(OC)c1ccccc1
refractive index
Settings	298.15 K	303.15 K	308.15 K	313.15 K	318.15 K
x2 = 0	1.38045 ± 0.004	1.37791 ± 0.004	1.37532 ± 0.004	1.37275 ± 0.004	1.37015 ± 0.004
x2 = 0.05	1.38569 ± 0.004	1.38315 ± 0.004	1.38057 ± 0.004	1.37799 ± 0.004	1.37541 ± 0.004
x2 = 0.1001	1.39089 ± 0.004	1.38836 ± 0.004	1.38582 ± 0.004	1.38325 ± 0.004	1.38071 ± 0.004
x2 = 0.1499	1.39601 ± 0.004	1.39351 ± 0.004	1.39097 ± 0.004	1.38844 ± 0.004	1.38592 ± 0.004
x2 = 0.2002	1.40114 ± 0.004	1.39865 ± 0.004	1.39614 ± 0.004	1.39362 ± 0.004	1.39108 ± 0.004
x2 = 0.2501	1.40622 ± 0.004	1.40372 ± 0.004	1.40124 ± 0.004	1.39874 ± 0.004	1.39625 ± 0.004
x2 = 0.3001	1.41123 ± 0.004	1.40874 ± 0.004	1.40626 ± 0.004	1.40376 ± 0.004	1.40129 ± 0.004
x2 = 0.3499	1.41623 ± 0.004	1.41376 ± 0.004	1.41131 ± 0.004	1.40883 ± 0.004	1.4064 ± 0.004
x2 = 0.4	1.42117 ± 0.004	1.41873 ± 0.004	1.41626 ± 0.004	1.41378 ± 0.004	1.41133 ± 0.004
x2 = 0.4499	1.42609 ± 0.004	1.42366 ± 0.004	1.42126 ± 0.004	1.41881 ± 0.004	1.41639 ± 0.004
x2 = 0.5	1.43096 ± 0.004	1.42854 ± 0.004	1.42613 ± 0.004	1.42369 ± 0.004	1.42133 ± 0.004
x2 = 0.55	1.43582 ± 0.004	1.4334 ± 0.004	1.43098 ± 0.004	1.42856 ± 0.004	1.42618 ± 0.004
x2 = 0.5999	1.44058 ± 0.004	1.43819 ± 0.004	1.43579 ± 0.004	1.43336 ± 0.004	1.43098 ± 0.004
x2 = 0.65	1.44535 ± 0.004	1.44296 ± 0.004	1.44058 ± 0.004	1.43819 ± 0.004	1.43582 ± 0.004
x2 = 0.6999	1.45008 ± 0.004	1.4477 ± 0.004	1.44531 ± 0.004	1.4429 ± 0.004	1.44055 ± 0.004
x2 = 0.75	1.45489 ± 0.004	1.45239 ± 0.004	1.45002 ± 0.004	1.44764 ± 0.004	1.44527 ± 0.004
x2 = 0.8	1.4594 ± 0.004	1.45703 ± 0.004	1.45464 ± 0.004	1.45227 ± 0.004	1.44991 ± 0.004
x2 = 0.8498	1.464 ± 0.004	1.46165 ± 0.004	1.45929 ± 0.004	1.45692 ± 0.004	1.45455 ± 0.004
x2 = 0.9	1.46859 ± 0.004	1.46623 ± 0.004	1.46388 ± 0.004	1.46153 ± 0.004	1.45918 ± 0.004
x2 = 0.95	1.47312 ± 0.004	1.47078 ± 0.004	1.46843 ± 0.004	1.46607 ± 0.004	1.46372 ± 0.004
